# From patent US4072744A, “N^2 -naphthalenesulfonyl-L-argininamides and the pharmaceutically acceptable salts thereof” (Mitsubishi Chemical Industries Limited, priority 1974, dated 1978)
# Experiment: acute toxicity (LD50) by intraperitoneal administration in mice
# Conditions: mouse, in vivo, ip, mice (male, 20 g)
# Source text: Representative LD50 values, for example, for N^2 -(5,6,7,8-tetrahydro-1-naphthalenesulfonyl)-N-methoxyethylglycine, N^2 -(7-methyl-2-naphthalenesulfonyl)-N-butylglycine and N^2 -(6,7-dimethyl-1-naphthalenesulfonyl)-N-methoxyethylglycine are above 1,500 milligrams per kilogram, respectively.
row,Structure (SMILES),LD50 [mg/kg]
1,"COCCN(CC(=O)O)C(=O)[C@H](CCCNC(=N)N)NS(=O)(=O)c1cccc2c1CCCC2 [Sample 3, N^2-(5,6,7,8-tetrahydro-1-naphthalenesulfonyl)-L-arginyl-N-methoxyethylglycine]",> 1500
2,"CCCCN(CC(=O)O)C(=O)[C@H](CCCNC(=N)N)NS(=O)(=O)c1ccc2ccc(C)cc2c1 [Sample 14, N^2-(7-methyl-2-naphthalenesulfonyl)-L-arginyl-N-butylglycine]",> 1500
3,"COCCN(CC(=O)O)C(=O)[C@H](CCCNC(=N)N)NS(=O)(=O)c1cccc2cc(C)c(C)cc12 [Sample 23, N^2-(6,7-dimethyl-1-naphthalenesulfonyl)-L-arginyl-N-methoxyethylglycine]",> 1500
